The values below come from patent US5011952A, “Phospholipase A2 inhibitor” (Shionogi & Co., Ltd., priority 1989, dated 1991).

Molecules are shown by their SMILES. pIC50: −log10 of the molar value.

The target of data set [1] is T1, PLA2 released from thrombin-stimulated rat platelets (Rattus norvegicus, UniProt P14423).
T1 construct: PLA2 released from thrombin-stimulated rat platelets; from tissue
T1 sequence (P14423 22-146): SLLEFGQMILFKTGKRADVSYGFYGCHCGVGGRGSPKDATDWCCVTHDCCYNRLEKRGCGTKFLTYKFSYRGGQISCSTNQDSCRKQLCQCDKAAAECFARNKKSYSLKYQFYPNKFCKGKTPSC
The data set can be described thus: PLA2 inhibitory activity, rat platelet-derived PLA2. Conditions: for inhibitory concentrations of α-thielocin versus β-thielocin: isomers equilibrated in the reaction solution. The data set is classed as biochemical. The protocol:
PLA2 inhibitory activities of thielocin were determined according to the following procedure.
PLA2 released from thrombin-stimulated rat platelets was prepared by immuno-affinity chromatography using antibody MD 7.1-coupled Sepharose (Murakami et. al, J. Biochem 104: 884-888, 1988). The standard assay conditions included, 250 μl of Tris-HCl buffer (100 mM, pH 7.4), CaCl2 (3 mM), 40 μM [^14 C] phosphatidylethanolamine and enzyme. The reaction was started by the addition of the enzyme solution. Following incubation at 37° C. for 20 min the reactions were terminated by addition of 1.25 ml of Dole's reagent (Dole, V. P. & H, Meinerts, J. Biol. Chem 235: 2595-2599, 1960). Then released free fatty acid was extracted, and counted in Liquiflour (Du Pont-New England Nuclear) to determine the release of the radioactivity. Inhibition activity is expressed as percent of enzyme control.

The nature of another data set: Solubility in solvents. The data set is classed as physicochemical.
Another data set deals with snake venom-derived PLA2. The data set can be described thus: PLA2 inhibitory activity, snake venom-derived PLA2. The data set is classed as biochemical.
Data set [2] addresses T2, PLA2 derived from porcine pancreas (Sus scrofa, UniProt P00592).
T2 construct: porcine-derived PLA2; from tissue; host or cells: porcine pancreas
Kind of data set: PLA2 inhibitory activity, porcine pancreas-derived PLA2. The data set is classed as biochemical. The following applies: read-out: concentration required for exhibiting 50 % inhibitory activity.

T2 sequence (P00592 23-146): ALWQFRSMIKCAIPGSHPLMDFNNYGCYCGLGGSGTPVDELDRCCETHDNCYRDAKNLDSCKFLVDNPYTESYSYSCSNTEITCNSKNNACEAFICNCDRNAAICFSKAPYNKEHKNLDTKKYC

Regarding `COc1c(C)c(OC(=O)c2c(C)c(C)c(OC(=O)C3=C(C)C(C)(O)C4(O)Oc5c(C)c(OC)c(C(=O)Oc6c(C)c(C)c(C(=O)O)c(OC)c6C)c(C)c5CC4(C)C3=O)c(C)c2OC)c(C)c(C)c1C(=O)O` (stereo not drawn) [Thielocin α, α-thielocin], in data set [1], the “inhibitory concentrations of α-thielocin versus β-thielocin” value was “not distinguished”. Besides, the Solubility result in “Solubility in solvents” (acetone) is “Soluble”; in “Solubility in solvents” (acetonitrile), “Soluble”; in the data set “Solubility in solvents” (chloroform), “Soluble”; in the data set “Solubility in solvents” (dimethylsulfoxide) it was “Soluble”; in the data set “Solubility in solvents” (ethanol), “slightly soluble”; in “Solubility in solvents” (ethyl acetate), “Soluble”. Further, the Solubility entry was “sparingly soluble or insoluble” in the data set “Solubility in solvents” (ethyl ether); “sparingly soluble or insoluble” in the data set “Solubility in solvents” (hexane); “slightly soluble” in “Solubility in solvents” (methanol); “sparingly soluble or insoluble” in “Solubility in solvents” (petroleum ether); “sparingly soluble or insoluble” in “Solubility in solvents” (water).

Regarding `COc1c(C)c(OC(=O)c2c(C)c(C)c(OC(=O)C3=C(C)C(C)(O)C4(O)Oc5c(C)c(OC)c(C(=O)Oc6c(C)c(C)c(C(=O)O)c(OC)c6C)c(C)c5CC4(C)C3=O)c(C)c2OC)c(C)c(C)c1C(=O)O` (stereo not drawn) [Thielocin β, β-thielocin], the “inhibitory concentrations of α-thielocin versus β-thielocin” value in data set [1] is “not distinguished”. Besides, the Solubility entry in “Solubility in solvents” (acetone) is “slightly soluble”; in “Solubility in solvents” (acetonitrile), “slightly soluble”; in the data set “Solubility in solvents” (chloroform), “slightly soluble”; in “Solubility in solvents” (dimethylsulfoxide), “Soluble”; in the data set “Solubility in solvents” (ethanol) it was “slightly soluble”; in “Solubility in solvents” (ethyl acetate) it was “slightly soluble”. The Solubility result in “Solubility in solvents” (ethyl ether) is recorded as “sparingly soluble or insoluble”; in the data set “Solubility in solvents” (hexane), “sparingly soluble or insoluble”; in the data set “Solubility in solvents” (methanol) it was “slightly soluble”; in the data set “Solubility in solvents” (petroleum ether), “sparingly soluble or insoluble”; in “Solubility in solvents” (water), “sparingly soluble or insoluble”.

On to `COc1c(C)c(OC(=O)c2c(C)c(C)c(OC(=O)C3=C(C)C(C)(O)C4(O)Oc5c(C)c(OC)c(C(=O)Oc6c(C)c(C)c(C(=O)O)c(OC)c6C)c(C)c5CC4(C)C3=O)c(C)c2OC)c(C)c(C)c1C(=O)O` (stereo not drawn) [thielocin], for which the pIC50 in data set [1] (rat platelet-derived PLA2, [14C]phosphatidylethanolamine substrate, 37° C., 20 min, read-out: concentration required for exhibiting 50 % inhibitory activity) was 8.30; in data set [2], 4.33. For the same compound, the “concentration required for exhibiting 50 % inhibitory activity” value in the data set on snake venom-derived PLA2 came to 10 µg/mL.
